Measurements as given in patent US5759565A, “Galenic compositions comprising calcitonin and their use” (Novartis Corporation, priority 1982, dated 1998).

What was measured:
[1] = test system: ciliary beating frequency of rat trachea; assay: Ciliary beating frequency, microphoto-oscillographic method of L. Chevance et al; format: cell-based; details: at 0.6%; within 20 minutes
Description: 70, […] (1970). These are just some of the disadvantageous effects that can be encountered.
Moreover the compositions are well tolerated as indicated in standard tests, e.g. in that less than 50% inhibition of ciliary beating frequency is observed up to 20 minutes after administration, according to the microphoto-oscillographic method of L. Chevance et al, Acta Otolaryng. 70, 26-28 (1970).

[2] = Relative bio-availability study: nasal administration/intra-muscular injection of salmon calcitonin, serum level by radio-immuno-assay; format: in vivo, human (healthy volunteers)
Description: The study is conducted with 12 healthy volunteers, 6 male and 6 female, with a body weight of from 50 to 85 kg. Each subject receives 4 administrations of salmon calcitonin, one intra-muscularly and 3 nasally. Administration is effected at the following dosages:
Nasal administration is effected using composition in accordance with example 1 and a spray-applicator delivering 55 MRC units per individual spray dosage. For the purposes of administration the subject is laid on the back with the head tilted backwards for 5 minutes. The nostrils are cleaned by blowing of the nose immediately prior to administration.
Intra-muscular administration is effected by injection of a single 1 ml dose of a composition similar to that of example 1, but omitting benzalkonium chloride and containing 50 MRC units into the glutaeus medius muscle.
Each subject receives the 4 administrations in randomized sequence, and at least 3 days are allowed between consecutive administrations. Each administration is effected in the morning after a light breakfast from which milk, butter and cheese is excluded. 100 ml water or orange juice is taken hourly following treatment to maintain urinary output. Further food is allowed not earlier than 4 hours after treatment.
Blood samples are taken immediately prior to administration (control), and at intervals of 5, 15, 30, 60, 90, 120, 180, 240, 360 and 480 minutes following administration. For the control a 20 ml sample is taken. All subsequent samples are 2 ml samples.
The concentration of salmon calcitonin in each serum sample is measured by radio-immuno-assay. Blood-pressure is controlled during the course of the trial and urine-samples tested for possible adverse reaction. Occurrence of side-effects, e.g. symptoms of nausea, is noted.
The AUC ("area under curve") for salmon calcitonin plasma concentration is calculated statistically, once employing all value, including those below the 26 pg/ml detectability limit, once with values below the detectability limit read as zero. Maximal plasma concentration and time at which this is reached are also determined. […]

| AUC of serum concentration compared with 50 MRC units i.m. ([2]; 110 MRC units intra-nasally) | AUC of serum concentration compared with 50 MRC units i.m. ([2]; 220 MRC units intra-nasally) | SMILES | inhibition of the ciliary beating frequency of rat trachea [1] | adverse side-effects ([2]; nasal administrations, up to the highest dosage of 220 MRC units) |
| --- | --- | --- | --- | --- |
| – | – | CC(C)(O)C(Cl)(Cl)Cl [chlorbutanol] | more than 50% | – |
| comparable | comparable | CC(C)C[C@H](NC(=O)[C@H](CCCCN)NC(=O)CNC(=O)[C@H](CC(C)C)NC(=O)[C@@H](NC(=O)[C@@H]1CSSC[C@H](N)C(=O)N[C@@H](CO)C(=O)N[C@@H](CC(N)=O)C(=O)N[C@@H](CC(C)C)C(=O)N[C@@H](CO)C(=O)N[C@@H]([C@@H](C)O)C(=O)N1)C(C)C)C(=O)N[C@@H](CO)C(=O)N[C@@H](CCC(N)=O)C(=O)N[C@@H](CCC(=O)O)C(=O)N[C@@H](CC(C)C)C(=O)N[C@@H](Cc1c[nH]cn1)C(=O)N[C@@H](CCCCN)C(=O)N[C@@H](CC(C)C)C(=O)N[C@@H](CCC(N)=O)C(=O)N[C@H](C(=O)N[C@@H](Cc1ccc(O)cc1)C(=O)N1CCC[C@H]1C(=O)N[C@@H](CCCNC(=N)N)C(=O)N[C@H](C(=O)N[C@@H](CC(N)=O)C(=O)N[C@H](C(=O)NCC(=O)N[C@@H](CO)C(=O)NCC(=O)N[C@H](C(=O)N1CCC[C@H]1C(N)=O)[C@@H](C)O)[C@@H](C)O)[C@@H](C)O)[C@@H](C)O [salmon calcitonin] | – | No adverse side-effects were recorded |
